Measurements: patent US10918645B2 (LIFEARC, priority 2016, dated 2021)

Experiments:
Type in all cases: biochemical
Settings in all cases: 1 μM inhibitor concentration
SRPK1 = SRPK1 (Homo sapiens (Human), UniProt Q96SB4); assay: SRPK1 kinase selectivity assay
Procedure: 5-20 mU of SRPK1 (diluted in 50 mM Tris (pH 7.5), 0.1 mM EGTA, 1 mg/ml BSA, 0.1%, b-Mercaptoethanol) is assayed against substrate peptide ([…]) in a final volume of […] containing 50 mM Tris (pH 7.5), 0.1 mM EGTA, 0.1%, b-Mercaptoethanol, 300 μM substrate peptide, 10 mM magnesium acetate and 0.05 mM [33P-g-ATP](500-1000 cpm/pmole) and incubated for 30 mins at room temperature. Assays are stopped by addition of 5 μl of 0.5M (3%) orthophosphoric acid. Assays are harvested onto P81 Unifilter plates using a wash buffer of 50 mM orthophosphoric acid.

TAK1 = TAK1 (Homo sapiens (Human), UniProt O43318); assay: TAK1 kinase selectivity assay
TAK1, sequence (O43318 1-303): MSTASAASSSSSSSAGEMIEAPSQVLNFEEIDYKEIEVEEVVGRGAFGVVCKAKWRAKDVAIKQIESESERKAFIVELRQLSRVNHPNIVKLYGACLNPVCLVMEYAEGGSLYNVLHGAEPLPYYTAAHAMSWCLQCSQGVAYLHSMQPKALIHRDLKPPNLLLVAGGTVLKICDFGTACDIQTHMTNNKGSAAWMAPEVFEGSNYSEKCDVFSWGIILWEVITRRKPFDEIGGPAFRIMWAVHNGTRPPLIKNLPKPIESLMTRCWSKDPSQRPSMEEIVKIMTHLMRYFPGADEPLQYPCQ
Procedure: TAK1 (5-20 mU diluted in 50 mM Tris pH 7.5, 0.1 mM EGTA, 1 mg/ml BSA) is assayed against a substrate peptide ([…]) in a final volume of 25.5 μl containing 50 mM Tris pH 7.5, 0.1 mM EGTA, 0.1% β-Mercaptoethanol, 300 μM substrate peptide, 10 mM magnesium acetate, 0.5 mM MnCl and 0.005 mM [33P-γ-ATP](50-1000 cpm/pmole) and incubated for 30 min at room temperature. Assays are stopped by addition of 5 μl of 0.5 M (3%) orthophosphoric acid and then harvested onto P81 Unifilter plates with a wash buffer of 50 mM orthophosphoric acid.

MSK1 = MSK1 (Homo sapiens (Human), UniProt O75582); assay: MSK1 kinase selectivity assay
MSK1, sequence (O75582 whole entry, species assumed): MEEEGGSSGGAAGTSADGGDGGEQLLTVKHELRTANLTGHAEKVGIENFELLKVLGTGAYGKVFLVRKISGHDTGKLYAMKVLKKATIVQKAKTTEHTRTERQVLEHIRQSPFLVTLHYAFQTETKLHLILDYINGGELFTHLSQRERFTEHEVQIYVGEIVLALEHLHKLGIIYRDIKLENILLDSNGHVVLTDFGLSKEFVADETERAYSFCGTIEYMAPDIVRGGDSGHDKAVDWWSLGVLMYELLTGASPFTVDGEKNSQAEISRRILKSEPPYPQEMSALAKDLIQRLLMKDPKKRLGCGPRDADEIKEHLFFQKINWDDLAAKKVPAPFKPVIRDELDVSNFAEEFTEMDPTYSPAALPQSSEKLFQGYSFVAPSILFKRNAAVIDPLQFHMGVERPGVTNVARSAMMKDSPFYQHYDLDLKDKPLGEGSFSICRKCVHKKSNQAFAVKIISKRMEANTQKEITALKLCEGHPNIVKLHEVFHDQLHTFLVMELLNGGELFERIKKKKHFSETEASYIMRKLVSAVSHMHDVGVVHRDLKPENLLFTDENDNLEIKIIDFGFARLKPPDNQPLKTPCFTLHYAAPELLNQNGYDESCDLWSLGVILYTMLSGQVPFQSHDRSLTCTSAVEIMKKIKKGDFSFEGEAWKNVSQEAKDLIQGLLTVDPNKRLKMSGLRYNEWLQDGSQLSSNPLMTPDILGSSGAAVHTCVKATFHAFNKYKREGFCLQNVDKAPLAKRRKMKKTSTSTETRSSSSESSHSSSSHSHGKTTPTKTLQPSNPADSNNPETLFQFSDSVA
Procedure: MSK1 (5-20 mU diluted in 20 mM MOPS pH 7.5, 1 mM EDTA, 0.01% Brij35, 0.1% b-mercaptoethanol, 1 mg/ml BSA) is assayed against a modified Crosstide peptide […] in a final volume of 25.5 μl containing 8 mM MOPS pH7.0, 0.2 mM EDTA, 30 μM substrate peptide, 10 mM magnesium acetate and 0.02 mM [33P-g-ATP](50-1000 cpm/pmole) and incubated for 30 min at room temperature Assays are stopped by addition of 5 μl of 0.5 M (3%) orthophosphoric acid and then harvested onto P81 Unifilter plates with a wash buffer of 50 mM orthophosphoric acid.

EF2K = EF2K (Homo sapiens (Human), UniProt O00418); assay: EF2K kinase selectivity assay
Procedure: EF2K (5-20 mU diluted in 50 mM Hepes pH 6.6, 0.1% b-mercaptoethanol, 1 mg/ml BSA) is assayed against a substrate peptide ([…]) in a final volume of 25.5 μl containing 50 mM Hepes pH 6.6, 0.2 mM CaCl2, 0.3 μM Calmodulin, 0.05% b-mercaptoethanol, 300 μM substrate peptide, 10 mM magnesium acetate and 0.005 mM [33P-g-ATP] (50-1000 cpm/pmole) and incubated for 30 min at room temperature. Assays are stopped by addition of 5 μl of 0.5 M (3%) orthophosphoric acid and then harvested onto P81 Unifilter plates with a wash buffer of 50 mM orthophosphoric acid.

DYRK1A = DYRK1A (Homo sapiens (Human), UniProt Q13627); assay: DYRK1A kinase selectivity assay
Procedure: DYRK 1A (5-20 mU of diluted in 50 mM Tris pH7.5, 0.1 mM EGTA) is assayed against Woodtide ([…]) in a final volume of 25.5 μl containing 50 mM Tris pH 7.5, 0.1 mM EGTA, 350 μM substrate peptide, 10 mM Magnesium acetate and 0.05 mM [33P-g-ATP](50-1000 cpm/pmole) and incubated for 30 min at room temperature. Assays are stopped by addition of 5 μl of 0.5 M (3%) orthophosphoric acid and then harvested onto P81 Unifilter plates with a wash buffer of 50 mM orthophosphoric acid.

MLK3 = MLK3 (Homo sapiens (Human), UniProt Q16584); assay: MLK3 kinase selectivity assay
MLK3, sequence (Q16584 whole entry, species assumed): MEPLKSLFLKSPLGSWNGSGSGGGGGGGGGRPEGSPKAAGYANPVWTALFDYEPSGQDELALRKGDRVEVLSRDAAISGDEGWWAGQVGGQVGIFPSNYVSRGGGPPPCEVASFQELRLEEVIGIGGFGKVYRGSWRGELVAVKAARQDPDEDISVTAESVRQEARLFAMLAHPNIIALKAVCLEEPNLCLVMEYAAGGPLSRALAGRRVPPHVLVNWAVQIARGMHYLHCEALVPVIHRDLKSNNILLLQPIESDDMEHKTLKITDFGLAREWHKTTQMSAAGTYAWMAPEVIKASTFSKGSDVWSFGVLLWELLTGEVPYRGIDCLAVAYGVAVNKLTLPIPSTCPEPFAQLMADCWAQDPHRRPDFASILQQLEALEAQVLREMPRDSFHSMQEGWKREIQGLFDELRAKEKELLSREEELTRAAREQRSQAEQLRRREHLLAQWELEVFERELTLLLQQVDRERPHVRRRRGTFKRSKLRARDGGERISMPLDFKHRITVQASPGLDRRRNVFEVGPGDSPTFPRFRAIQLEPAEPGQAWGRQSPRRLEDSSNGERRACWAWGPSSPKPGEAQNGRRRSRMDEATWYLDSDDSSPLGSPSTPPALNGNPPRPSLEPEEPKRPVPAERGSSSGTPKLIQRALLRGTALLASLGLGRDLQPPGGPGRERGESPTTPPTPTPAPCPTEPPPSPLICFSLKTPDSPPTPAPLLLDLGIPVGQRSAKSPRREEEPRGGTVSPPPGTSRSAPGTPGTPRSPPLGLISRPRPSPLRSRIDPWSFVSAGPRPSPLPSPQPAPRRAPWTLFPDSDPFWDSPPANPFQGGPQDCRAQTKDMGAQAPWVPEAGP
Procedure: MLK3 (5-20 mU diluted in 50 mM Tris pH 7.5, 0.1 mM EGTA, 0.1% 0-mercaptoethanol, 1 mg/ml BSA) is assayed against MBP in a final volume of 25.5 μl containing 50 mM Tris pH 7.5, 0.1 mM EGTA, 0.33 mg/ml MBP, 10 mM magnesium acetate and 0.02 mM [33P-γ-ATP] (50-1000 cpm/pmole) and incubated for 30 min at room temperature. Assays are stopped by addition of 5 μl of 0.5 M (3%) orthophosphoric acid and then harvested onto P81 Unifilter plates with a wash buffer of 50 mM orthophosphoric acid.

MARK3 = MARK3 (Homo sapiens (Human), UniProt P27448); assay: MARK3 kinase selectivity assay
MARK3, sequence (P27448 whole entry, species assumed): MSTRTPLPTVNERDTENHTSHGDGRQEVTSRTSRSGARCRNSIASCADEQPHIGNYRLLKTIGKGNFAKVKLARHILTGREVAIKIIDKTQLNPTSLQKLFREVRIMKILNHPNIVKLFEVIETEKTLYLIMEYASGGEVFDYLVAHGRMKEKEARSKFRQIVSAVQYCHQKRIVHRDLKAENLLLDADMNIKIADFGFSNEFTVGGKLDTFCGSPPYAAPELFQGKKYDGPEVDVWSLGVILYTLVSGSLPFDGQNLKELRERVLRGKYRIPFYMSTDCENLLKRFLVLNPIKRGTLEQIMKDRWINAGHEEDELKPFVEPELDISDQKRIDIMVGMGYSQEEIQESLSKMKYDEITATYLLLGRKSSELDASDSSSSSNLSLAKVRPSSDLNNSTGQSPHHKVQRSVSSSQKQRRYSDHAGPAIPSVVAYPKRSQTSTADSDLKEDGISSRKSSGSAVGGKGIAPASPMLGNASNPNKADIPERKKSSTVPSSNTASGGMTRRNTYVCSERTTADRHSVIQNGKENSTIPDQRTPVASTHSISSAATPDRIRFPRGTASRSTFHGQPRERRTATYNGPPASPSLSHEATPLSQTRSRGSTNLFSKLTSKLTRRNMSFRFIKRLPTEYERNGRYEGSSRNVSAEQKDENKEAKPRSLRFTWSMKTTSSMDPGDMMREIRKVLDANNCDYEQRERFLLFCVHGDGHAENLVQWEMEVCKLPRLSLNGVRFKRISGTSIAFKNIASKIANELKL
Procedure: MARK3 (5-20 mU diluted in 50 mM Tris pH 7.5, 0.1 mM EGTA, 0.1% b-mercaptoethanol, 1 mg/ml BSA) is assayed against CHKtide substrate ([…]) in a final volume of 25.5 μl containing 50 mM Tris pH 7.5, 0.05% b-mercaptoethanol, 300 μM substrate peptide, 10 mM magnesium acetate and 0.005 mM [33P-g-ATP](50-1000 cpm/pmole) and incubated for 30 min at room temperature. Assays are stopped by addition of 5 μl of 0.5 M (3%) orthophosphoric acid and then harvested onto P81 Unifilter plates with a wash buffer of 50 mM orthophosphoric acid.

CK2 = CK2 kinase selectivity assay
Procedure: CK2 (5-20 mU diluted in 20 mM Hepes pH7.5, 0.15 M NaCl, 0.1 mM EGTA, 0.1% Triton X-100, 5 mM DTT, 50% glycerol) is assayed against CKII peptide ([…]) in a final volume of 25.5 μl containing 20 mM Hepes pH 7.5, 0.15 M NaCl, 0.1 mM EDTA, 5 mM DTT, 0.1% Triton-X 100, CKII peptide (0.165 mM), 10 mM magnesium acetate and 0.005 mM [33P-g-ATP](500-1000 cpm/pmole) and incubated for 30 min at room temperature. Assays are stopped by addition of 5 μl of 0.5 M (3%) orthophosphoric acid and then harvested onto P81 Unifilter plates with a wash buffer of 50 mM orthophosphoric acid.

SRPK1, sequence (Q96SB4 whole entry, species assumed): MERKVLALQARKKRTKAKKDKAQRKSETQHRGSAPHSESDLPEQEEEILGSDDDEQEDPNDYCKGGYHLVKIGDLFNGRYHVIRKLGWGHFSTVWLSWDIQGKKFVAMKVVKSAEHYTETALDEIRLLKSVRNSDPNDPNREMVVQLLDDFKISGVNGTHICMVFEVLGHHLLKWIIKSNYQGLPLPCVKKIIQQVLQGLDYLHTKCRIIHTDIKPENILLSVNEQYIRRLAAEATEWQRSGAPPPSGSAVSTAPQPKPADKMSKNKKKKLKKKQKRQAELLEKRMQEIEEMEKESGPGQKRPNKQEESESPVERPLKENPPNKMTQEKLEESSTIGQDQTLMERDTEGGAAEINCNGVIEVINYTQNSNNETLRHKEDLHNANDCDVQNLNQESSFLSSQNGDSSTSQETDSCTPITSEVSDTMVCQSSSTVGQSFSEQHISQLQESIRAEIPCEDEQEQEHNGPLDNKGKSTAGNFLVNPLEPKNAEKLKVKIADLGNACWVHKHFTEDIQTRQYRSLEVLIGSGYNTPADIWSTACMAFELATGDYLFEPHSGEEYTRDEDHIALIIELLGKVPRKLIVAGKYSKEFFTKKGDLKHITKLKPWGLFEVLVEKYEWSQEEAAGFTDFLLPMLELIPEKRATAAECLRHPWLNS

Row | SMILES | percentage inhibition of SRPK1 (SRPK1) | percentage inhibition of TAK1 (TAK1) | percentage inhibition of MSK1 (MSK1) | percentage inhibition of EF2K (EF2K) | percentage inhibition of DYRK1A (DYRK1A) | percentage inhibition of MLK3 (MLK3) | percentage inhibition of MARK3 (MARK3) | percentage inhibition of CK2 (CK2)
1 | CC(C)n1ncc2c1CN(C1CCN(C)CC1)c1nccc3[nH]nc-2c13 [Example 68] | 0 percentage | 36 percentage | 30 percentage | 1 percentage | 0 percentage | 4 percentage | 43 percentage | 4 percentage
2 | c1cc2[nH]nc3c2c(n1)N(C1CCC1)CCC3 [Example 22, 6-cyclobutyl-6,7,8,9-tetrahydro-2H-1,2,5,6-tetraazabenzo[cd]azulene] | 0 percentage | 64 percentage | 2 percentage | 0 percentage | 16 percentage | 7 percentage | 1 percentage | 0 percentage
3 | c1cc2[nH]nc3c2c(n1)N(C1CCCC1)CCC3 [Example 23, 6-cyclopentyl-6,7,8,9-tetrahydro-2H-1,2,5,6-tetraazabenzo[cd]azulene] | 0 percentage | 49 percentage | 2 percentage | 0 percentage | 0 percentage | 4 percentage | 0 percentage | –
4 | CN1CCC(N2Cc3ccccc3-c3n[nH]c4ccnc2c34)CC1 [Example 55] | 0 percentage | 64 percentage | 34 percentage | 1 percentage | 8 percentage | 6 percentage | 47 percentage | 11 percentage
5 | c1cc2[nH]nc3c2c(n1)N(C1CCOCC1)CCC3 [Example 29, 6-(tetrahydro-2H-pyran-4-yl)-6,7,8,9-tetrahydro-2H-1,2,5,6-tetraazabenzo[cd]azulene] | 0 percentage | 65 percentage | 7 percentage | 0 percentage | 4 percentage | 8 percentage | 13 percentage | 0 percentage
